What was measured:
Assay type in all cases: in vivo, rat
malate dehydrogenase = assay: Muscle malate dehydrogenase activity after chronic AICAR injection; conditions: AICAR 1 mg/g daily 4 wk, FIG. 4
Description: (§1) To determine the effect of chronic injection of AICAR on muscle enyzme activities or expression and on muscle GLUT4, rats were injected subcutaneously (between 8 and 10 a.m.) with AICAR (1 mg/g) or saline vehicle daily for 28±1 days in succession. Beginning with the first injection, controls were pair fed with AICAR-injected rats. Rats were anesthetized by intraperitoneal injection of pentobarbital sodium 22-25 hours after the last AICAR injection and the white and red regions of the quadriceps and the soleus muscles were removed and frozen as described above. Muscles were kept frozen at −70° C. until analyzed. Liver, heart, kidney, and fat pads were weighed.
(§2) For enzyme activity measurements, 10% homogenates were made from the respective muscles in 175 mM KCl, 10 mM GSH, 2 mM EDTA, pH 7.4. This homogenate was frozen and thawed 3 times and mixed thoroughly prior to enzymatic measurements. For succinate dehydrogenase and lactate dehydrogenase, an aliquot of the homogenate was centrifuged at 700×g for 10 min at 4° C. The remainder of the assays were performed on aliquots and dilutions of the mixed whole homogenate. Assays were performed by the following methods: citrate synthase, succinate dehydrogenase, the mitochondrial fraction of malate dehydrogenase, hexokinase, lactate dehydrogenase, carnitine palmitoyl transferase and hydroxyacyl-CoA dehydrogenase. Srere, P. A. Methods in Enzymology 13:3-6, 1969; King, T. E. Methods Enzymol 10:322-335, 1967; Shonk, C. E. & G. E. Boxer, Cancer Res. 24:709-721, 1964; Uyeda, K., & E. Racker, J. Biol Chem 240:4682-4688, 1965; Pesce, A., et al. J. Biol. Chem. 239:1753-1761, 1964; Baldwin, K. M., et al. Am. J. Physiol 222:373-378, 1972; Mole, P. A., et al. J. Clin. Invest. 50:2323-2330, 1971; Kobayashi, A. et al. J. Biochem. 119:775-782, 1996.

[1] = Muscle weights in 3-day denervated and contralateral control muscles; conditions: same in both treatment groups
Description: Rats were anesthetized with ether and the sciatic nerve of the right hindlimb was severed. The left hindlimb was sham operated to serve as a control. Both skin wounds were closed with a metal clips. The rats used for the acute study were also implanted with a jugular catheter which was exteriorized on the back of the neck at the time of denervation for rapid administration of anesthesia.
Rats were injected either with AICAR (1 mg in 0.9% NaCl/g body weight) or a 0.9% NaCl solution ˜0, ˜24, and ˜48 hours after denervation and were then sacrificed ˜72 hours after denervation without injection. Rats were anesthetized with sodium pentobarbital (4.8 mg/100 g. body weight), soleus and gastrocnemius muscles from both sham and denervated sides were extracted, and muscles were quick frozen in liquid nitrogen and stored for analysis.

succinate dehydrogenase = assay: Muscle succinate dehydrogenase activity after chronic AICAR injection; conditions: AICAR 1 mg/g daily 4 wk, FIG. 4
Description: as §1
For enzyme activity measurements, 10% homogenates were made from the respective muscles in 175 mM KCl, 10 mM GSH, 2 mM EDTA, pH 7.4. This homogenate was frozen and thawed 3 times and mixed thoroughly prior to enzymatic measurements. For succinate dehydrogenase and lactate dehydrogenase, an aliquot of the homogenate was centrifuged at 700×g for 10 min at 4° C. The remainder of the assays were performed on aliquots and dilutions of the mixed whole homogenate. Assays were performed by the following methods: citrate synthase, succinate dehydrogenase, the mitochondrial fraction of malate dehydrogenase, hexokinase, lactate dehydrogenase, carnitine palmitoyl transferase and hydroxyacyl-CoA dehydrogenase. […]

[2] = tested on: AMP-activated protein kinase (AMPK); assay: AMPK activity in ammonium sulfate precipitates of muscle homogenates after s.c. AICAR injection
Description: Three days prior to the experiment, jugular cathethers were installed and exteriorized on the back of the neck to allow rapid anesthesia of the rat and rapid blood and tissue collection. Rats were then injected with AICAR (1 mg/g body wt) subcutaneously in sterile 0.9% NaCl or were given 0.9% NaCl (n=6 rats per group). One hour after the subcutaneous injection, rats were anesthetized by intravenous injection of pentobarbital sodium (4.8 mg/100 g body wt). The superficial white and the deep red regions of the quadriceps muscles, and the soleus muscles were quickly removed and frozen with stainless steel clamps at liquid nitrogen temperature.
Resuspended ammonium sulfate precipitates of tissue homogenates were analyzed for AMPK activity and acetyl-CoA carboxylase activity as described previously. Li, B., et al. J. Biol. Chem. 274:17534-17540, 1999; Winder, W. W., & D. G. Hardie Am. J. Physiol. 270:E299-E304, 1996. […] ACC activity at 0.2 mM citrate provides some indication of the in vivo activity of AMPK, since ACC is a target for phosphorylation of AMPK. ACC activity has previously been reported to decrease in response to phosphorylation by AMPK. Winder, W. W., & D. G. Hardie Am. J. Physiol. 270:E299-E304, 1996. The acute experiment was also repeated on rats treated with AICAR or saline for 4 weeks to see if the responses of AMPK and ACC to AICAR persisted for the entire treatment period. In both experiments ATP and CP were measured on neutralized perchloric acid extracts of muscle.

citrate synthase = assay: Muscle citrate synthase activity after chronic or intermittent AICAR injection; conditions: for citrate synthase activity vs saline-injected controls: AICAR 4 weeks, FIG. 3
Description: as §1
After obtaining results on blunted acute response to an AICAR injection on AMPK in chronically treated rats, an additional experiment was done to determine if intermittent treatment of rats with AICAR would influence the extent of the increase in citrate synthase. This experiment was also of shorter duration to minimize down regulation that appeared to occur with prolonged treatment. Rats were injected for three days (1 mg/g) followed by two days of no treatment. They were then injected for five days, followed by another two days with no treatment and then for three additional days before killing 20-24 hours following the last injection. Rats were anesthetized and tissues were collected and frozen as before. Analytical methods. Muscles from rats killed 1 h after injection of AICAR or saline were analyzed for AMPK, acetyl-CoA carboxylase (ACC) at 0.2 mM citrate, ATP and CP and ZMP. Li, B., et al. J. Biol. Chem. 274:17534-17540, 1999; Winder, W. W., & D. G. Hardie Am. J. Physiol. 270:E299-E304, 1996; Heinz, F., & H. Weisser. Creatine phosphate. In: Methods of Enzymatic Analysis, edited by H. U. Bergmeyer. New York: Academic, 1983, p. 507-514.
as §2

[3] = tested on: carnitine palmitoyl-transferase; assay: Muscle carnitine palmitoyl-transferase activity after chronic AICAR injection; conditions: chronic AICAR 1 mg/g daily 4 wk
Description: as §1, §2

## NC(=O)c1ncn([C@@H]2O[C@H](CO)[C@@H](O)[C@H]2O)c1N [AICAR, 5-aminoimidazole-4-carboxamide-1-β-D-ribofuranoside]
Malate dehydrogenase; red quadriceps
  malate dehydrogenase activity vs controls: not in red quadriceps
Malate dehydrogenase; soleus
  malate dehydrogenase activity vs controls: all increased
Malate dehydrogenase; white quadriceps
  malate dehydrogenase activity vs controls: all increased
[1]; gastrocnemius
  loss of muscle mass after 3 days of denervation: ~14%
[1]; soleus
  loss of muscle mass after 3 days of denervation: ~20%
Succinate dehydrogenase; soleus
  succinate dehydrogenase activity vs controls: all increased
Succinate dehydrogenase; white quadriceps
  succinate dehydrogenase activity vs controls: all increased
[2]; red quadriceps, 60 min after AICAR injection, after daily injections for 4 wk
  AMPK: 200 ± 17 pmol/g/min
[2]; red quadriceps, 60 min after single AICAR injection 1 mg/g s.c., no chronic treatment
  AMPK: 405 ± 62 pmol/g/min
[2]; soleus, 60 min after AICAR injection, after daily injections for 4 wk
  AMPK: 191 ± 22 pmol/g/min
[2]; soleus, 60 min after single AICAR injection 1 mg/g s.c., no chronic treatment
  AMPK: 447 ± 42 pmol/g/min
[2]; white quadriceps, 60 min after AICAR injection, after daily injections for 4 wk
  AMPK: 258 ± 32 pmol/g/min
[2]; white quadriceps, 60 min after single AICAR injection 1 mg/g s.c., no chronic treatment
  AMPK: 1,102 ± 80 pmol/g/min
Citrate synthase; red quadriceps
  citrate synthase activity vs saline-injected controls: not in red quadriceps
Citrate synthase; red region of the quadriceps, intermittent AICAR injections 1 mg/g
  citrate synthase: 57.4 ± 2.5 µmol/g/min
Citrate synthase; soleus
  citrate synthase activity vs saline-injected controls: significantly increased
Citrate synthase; white quadriceps
  citrate synthase activity vs saline-injected controls: significantly increased
Citrate synthase; white quadriceps, intermittent AICAR injections
  citrate synthase increase vs controls: 48%
Citrate synthase; white quadriceps, intermittent AICAR injections 1 mg/g (3 days on, 2 off, 5 on, 2 off, 3 on)
  citrate synthase: 23.0 ± 1.2 µmol/g/min
[3]; red quadriceps
  CPT activity: 0.46 ± 0.02 µmol/g/min
[3]; soleus
  CPT activity: 0.62 ± 0.02 µmol/g/min
[3]; white quadriceps
  CPT activity: 0.16 ± 0.01 µmol/g/min

Reference: patent US20030212034A1, “Method of treatment of obesity and paralyzed muscle and ergogenic aids” (priority 2002, published 2003)
